Laboratory results published in publication PMC9356065, “Novel psoralen derivatives as anti-breast cancer agents and their light-activated cytotoxicity against HER2 positive breast cancer cells” (Scientific Reports, 2022).

Legend:
aromatase (CYP19) = biological target: T1, aromatase (CYP19) (Homo sapiens, UniProt P11511); experiment: Inhibition of aromatase (AIA); format: biochemical; conditions: for inhibition at 12.5 µM: I = %inhibition lower than 50%, read-out: Aromatase inhibitory activity %Inhibition; for IC50: read-out: Aromatase inhibitory activity IC50
T1 sequence (P11511 1-503): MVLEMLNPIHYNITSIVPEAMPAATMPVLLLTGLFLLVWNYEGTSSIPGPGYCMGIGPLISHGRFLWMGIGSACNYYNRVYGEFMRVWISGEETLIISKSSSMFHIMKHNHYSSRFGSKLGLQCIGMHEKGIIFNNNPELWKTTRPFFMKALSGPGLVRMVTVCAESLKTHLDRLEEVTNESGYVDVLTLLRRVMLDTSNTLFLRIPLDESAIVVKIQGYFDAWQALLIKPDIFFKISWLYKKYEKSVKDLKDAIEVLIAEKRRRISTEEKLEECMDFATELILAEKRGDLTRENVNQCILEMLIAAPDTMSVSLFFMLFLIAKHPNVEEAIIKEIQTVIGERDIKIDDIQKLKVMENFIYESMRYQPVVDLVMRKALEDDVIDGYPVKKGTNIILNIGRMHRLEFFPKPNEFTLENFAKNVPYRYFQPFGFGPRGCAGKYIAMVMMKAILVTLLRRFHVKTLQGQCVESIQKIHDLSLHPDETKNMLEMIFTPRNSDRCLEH
Experimental: Estrogens are the critical risk factor for breast cancer initiation and progression and the aromatase enzyme involves in the final step conversion of androgens to estrogens[21],[22]. […] In this study, the synthesized psoralen derivatives were also tested for aromatase inhibitory activity (AIA) which is considered to be one of chemopreventive mechanisms for hormone dependent breast cancer.
Inhibition of the aromatase was performed using the method designed by Stresser et al.[39].

[1] = Scavenging of diphenyl-picryl-hydrazyl radicals (DPPH); conditions: for DPPH %Inh: screening concentration 250 µM
From the text: 1. Chemoprevention activity

[2] = test system: differentiated HL-60 cells; experiment: Inhibition of TPA-induced superoxide anion radical generation (HL-60 Antioxidant); format: cell-based, human; conditions: screening concentration 100 µM; for inhibition at 100 µM: Homo sapiens, HL-60, read-out: HL-60 Antiox. %Inh
From the text: Inhibition of 12-O-tetradecanoylphorbol-13-acetate (TPA)-induced superoxide anion radical generation in differentiated HL-60 cells (HL-60 Antioxidant) TPA-induced superoxide anion radical formation was detected in differentiated HL-60 cells by photometric determination of cytochrome c reduction as previously described by Gerhäuser et al., 2003.ii Superoxide dismutase (SOD;15U) was a positive control. […]

MDA-MB-231 [3] = experiment: MTT cytotoxicity, 48 h, without UVA; format: cell-based; conditions: Homo sapiens, MDA-MB-231, light or radiation study; for inhibition at 50 µg/mL: I = %inhibition lower than 50%, read-out: Cytotoxic activity MDA-MB-231 %Inhibition; for IC50: hormone-independent breast cancer, read-out: Cytotoxic activity MDA-MB-231 IC50
Experimental: (§1) MDA-MB-231 (triple-negative breast cancer) was obtained from M.D. Anderson Cancer Center, Houston, TX, USA). T47-D (hormone-dependent breast carcinoma), SK-BR-3 (human HER2+ breast cancer), and MRC-5 (normal embryonic lung fibroblast) were obtained from the American Type Culture Collection (ATCC, Manassas, VA, USA).
(§2) The cytotoxic effect of tested compounds was evaluated in two breast cancer cell lines, MDA-MB-231 and T47-D. Number of survival cells after exposure to tested compounds for 48 h was determined by MTT assay, as previously described.

T47-D = experiment: MTT cytotoxicity, 48 h, without UVA; format: cell-based, human; conditions: for inhibition at 50 µg/mL / IC50: Homo sapiens, T47D, light or radiation study, 48 h, without UVA; for inhibition at 50 µg/mL: I = %inhibition lower than 50%, read-out: Cytotoxic activity T47-D %Inhibition; for IC50: hormone-dependent breast cancer, read-out: Cytotoxic activity T47-D IC50; for Selectivity Index (SI): SI = IC50 for MRC-5/IC50 for T47-D
Experimental: Additionally, the cytotoxicity towards normal cells, human embryonal lung fibroblast cell MRC-5 was also assessed.
as §1, §2

[4] = Inhibition of superoxide radical formation by xanthine/xanthine oxidase (XXO); format: biochemical; conditions: for XXO %Inh: screening concentration 500 µM
From the text: 1. […]

MDA-MB-231 [5] = experiment: Dark and light-activated (UVA) cytotoxicity, MTT; format: cell-based; conditions: Homo sapiens, MDA-MB-231, light or radiation study; irradiation with UVA (2.0 J cm^−2); HER2− breast cancer
Experimental: (§3) The selected compounds were screened for their IC50 values against both HER2+ breast cancer (SK-BR-3), and HER2− breast cancer (MDA-MB-231) in both dark and light-activated conditions (Table 2). Additionally, a negative control study was also performed with SK-BR-3 and MDA-MB-231 cells in the absence of tested compound under UVA irradiation (See Fig S7., Supporting Information).
(§4) SK-BR-3 and MDA-MB-231 cells were seeded into 96-well cell culture plates at 5 × 10^3 cells/well and incubated for 24 h at 37 °C under 5% CO2. After that, the cells were treated with 50 μM of psoralen derivatives in DMEM with 10% FBS and the cells were continued incubation for another 4 h. After incubation, the cells were washed with PBS (3 times) and then irradiated by a 365 nm lamp with the light intensity of 2.0 J cm^−2 for 12.5 min before re-incubation for another 72 h. After incubation, the cell was treated with methylthiazolyldiphenyl-tetrazolium bromide (MTT reagent 200 μL, 0.5 mg mL^−1, Sigma-Aldrich) for 2 h. After reagent removal, DMSO was added to dissolve the formazan product and the cell viabilities were determined through UV–Vis absorption of the resulting formazan at wavelength 560 nm using a microplate reader (BMG Labtech/SPECTROstar Nano). The cell morphology images were captured by using a light microscope (Microscope Nikon, inverted digital) at 20X magnification prior to treating with MTT reagent.

MDA-MB-231 [6] = experiment: Dark and light-activated (UVA) cytotoxicity, MTT; format: cell-based; conditions: Homo sapiens, dark, HER2− breast cancer
SK-BR-3 [7] = experiment: Dark and light-activated (UVA) cytotoxicity, MTT; format: cell-based; conditions: Homo sapiens, dark, HER2+ breast cancer
SK-BR-3 [8] = experiment: Dark and light-activated (UVA) cytotoxicity, MTT; format: cell-based, human; conditions: Homo sapiens, SK-BR-3, light or radiation study; irradiation with UVA (2.0 J cm^−2); HER2+ breast cancer
Experimental: as §3, §4

xanthine oxidase = xanthine oxidase (Homo sapiens, UniProt P47989); experiment: Inhibition of xanthine oxidase (IXO); format: biochemical; conditions: screening concentration 500 µM; read-out: IXO %Inh
xanthine oxidase, sequence (P47989 whole entry, species assumed): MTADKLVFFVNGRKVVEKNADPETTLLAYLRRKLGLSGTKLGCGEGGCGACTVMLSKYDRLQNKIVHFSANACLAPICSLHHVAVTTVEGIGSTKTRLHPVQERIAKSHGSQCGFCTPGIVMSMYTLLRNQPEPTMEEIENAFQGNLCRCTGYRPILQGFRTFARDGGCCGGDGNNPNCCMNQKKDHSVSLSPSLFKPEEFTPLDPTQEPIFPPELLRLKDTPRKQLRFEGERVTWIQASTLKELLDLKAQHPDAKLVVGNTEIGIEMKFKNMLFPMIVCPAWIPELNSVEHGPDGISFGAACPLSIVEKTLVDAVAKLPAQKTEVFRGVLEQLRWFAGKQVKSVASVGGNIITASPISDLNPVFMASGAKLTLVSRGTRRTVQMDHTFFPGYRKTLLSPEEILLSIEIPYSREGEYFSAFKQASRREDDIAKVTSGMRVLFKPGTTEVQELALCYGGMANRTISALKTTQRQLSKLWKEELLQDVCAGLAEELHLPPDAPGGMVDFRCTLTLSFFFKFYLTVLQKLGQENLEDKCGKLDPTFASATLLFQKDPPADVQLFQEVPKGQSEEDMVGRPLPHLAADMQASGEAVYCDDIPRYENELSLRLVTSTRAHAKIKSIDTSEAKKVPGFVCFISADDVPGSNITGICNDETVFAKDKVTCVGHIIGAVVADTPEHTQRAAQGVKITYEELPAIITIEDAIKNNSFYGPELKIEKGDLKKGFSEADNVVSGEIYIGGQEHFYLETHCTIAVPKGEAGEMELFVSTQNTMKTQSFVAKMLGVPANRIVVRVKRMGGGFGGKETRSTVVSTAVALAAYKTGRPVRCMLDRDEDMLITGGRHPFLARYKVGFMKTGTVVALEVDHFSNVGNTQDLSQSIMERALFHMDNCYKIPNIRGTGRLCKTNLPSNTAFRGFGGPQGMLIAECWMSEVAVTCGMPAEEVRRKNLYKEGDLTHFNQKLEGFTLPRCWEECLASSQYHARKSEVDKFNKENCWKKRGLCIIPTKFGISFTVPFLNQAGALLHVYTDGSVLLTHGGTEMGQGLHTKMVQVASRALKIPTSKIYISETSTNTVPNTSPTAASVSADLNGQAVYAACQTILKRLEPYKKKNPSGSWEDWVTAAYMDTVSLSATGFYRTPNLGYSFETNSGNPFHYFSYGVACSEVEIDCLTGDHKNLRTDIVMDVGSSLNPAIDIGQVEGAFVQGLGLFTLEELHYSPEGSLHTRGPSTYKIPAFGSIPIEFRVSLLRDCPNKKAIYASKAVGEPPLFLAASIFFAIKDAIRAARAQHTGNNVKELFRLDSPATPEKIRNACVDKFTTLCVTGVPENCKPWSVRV
Experimental: 1. […]
Inhibition of xanthine oxidase (IXO)
Xanthine oxidase activity was determined by quantifying the amount of uric acid produced
from xanthine. […]

MCF-7 = conditions: Fig. 1d; cited from earlier work

SMILES | inhibition at 12.5 µM (aromatase (CYP19)) | melting point | DPPH %Inh [1] | inhibition at 100 µM [2] | inhibition at 50 µg/mL (MDA-MB-231 [3]) | inhibition at 50 µg/mL (T47-D) | further results
COc1c2occc2c(NC(=O)c2ccccc2)c2ccc(=O)oc12 [3a, N-(9-Methoxy-7-oxo-7H-furo[3,2-g]chromen-4-yl)benzamide] | 3% | 220 to 222 °C | 6% | 3% | 25% | 45% | –
COc1c2occc2c(NC(=O)c2ccc(F)cc2)c2ccc(=O)oc12 [3b, 4-Fluoro-N-(9-methoxy-7-oxo-7H-furo[3,2-g]chromen-4-yl)benzamide] | 6% | 276 to 277 °C | 3% | 1% | 34% | 49% | –
COc1c2occc2c(NC(=O)c2ccc(Br)cc2)c2ccc(=O)oc12 [3c, 4-Bromo-N-(9-methoxy-7-oxo-7H-furo[3,2-g]chromen-4-yl)benzamide] | 13% | 293 to 294 °C | 6% | – | – | – | HL-60 Antiox. %Inh [2]: Toxic; XXO %Inh [4]: 25%; IC50 (MDA-MB-231 [3]): 91.3 ± 7.84 µM; IC50 (T47-D): 10.1 ± 0.53 µM; Selectivity Index (SI) (T47-D): > 11.9
COc1c2occc2c(NC(=O)c2ccc(C(F)(F)F)cc2)c2ccc(=O)oc12 [3d, N-(9-Methoxy-7-oxo-7H-furo[3,2-g]chromen-4-yl)-4-(trifluoromethyl)benzamide] | 10% | 284 to 286 °C | 7% | – | 35% | – | HL-60 Antiox. %Inh [2]: Toxic; fold superiority of SI over tamoxifen citrate (T47-D): ≥ 2.8 fold; IC50 (T47-D): 13.6 ± 0.26 µM; Selectivity Index (SI) (T47-D): > 9.1
COc1ccc(C(=O)Nc2c3ccoc3c(OC)c3oc(=O)ccc23)cc1 [3e, 4-Methoxy-N-(9-methoxy-7-oxo-7H-furo[3,2-g]chromen-4-yl)benzamide] | 15% | 211 to 212 °C | 4% | 0% | 19% | 38% | IC50 (MDA-MB-231 [5]): > 100 µM; IC50 (MDA-MB-231 [6]): > 100 µM; IC50 (SK-BR-3 [7]): > 100 µM; IC50 (SK-BR-3 [8]): 66.7 ± 2.75 µM
COc1c2occc2c(NC(=O)c2cccs2)c2ccc(=O)oc12 [3h, N-(9-Methoxy-7-oxo-7H-furo[3,2-g]chromen-4-yl) thiophene-2-carboxamide] | 8% | 213 to 214 °C | 6% | 24% | 8% | 25% | –
COc1c2occc2c(NC(C)=O)c2ccc(=O)oc12 [3i, N-(9-Methoxy-7-oxo-7H-furo[3,2-g]chromen-4-yl)acetamide] | 7% | 251 to 252 °C | 1% | 11% | 6% | 20% | inhibition at 500 µM (xanthine oxidase): 47%
COc1c2occc2c(NC(=O)C(C)(C)C)c2ccc(=O)oc12 [3l, N-(9-Methoxy-7-oxo-7H-furo[3,2-g]chromen-4-yl)pivalamide] | 14% | 210 to 212 °C | 1% | 10% | 1% | 21% | IC50 (MDA-MB-231 [5]): > 100 µM; IC50 (MDA-MB-231 [6]): > 100 µM; IC50 (SK-BR-3 [7]): > 100 µM; IC50 (SK-BR-3 [8]): 48.1 ± 3.07 µM
CCCCCC(=O)N(C(=O)CCCCC)c1c2ccoc2c(OC)c2oc(=O)ccc12 [3m, N-Hexanoyl-N-(9-methoxy-7-oxo-7H-furo[3,2-g]chromen-4-yl)hexanamide] | – | 170 to 171 °C | 1% | 0% | 5% | 15% | IC50 (aromatase (CYP19)): 9.4 ± 0.4 µM; IC50 (MDA-MB-231 [5]): > 100 µM; IC50 (MDA-MB-231 [6]): > 100 µM; XXO %Inh [4]: 2%; IC50 (SK-BR-3 [7]): > 100 µM; IC50 (SK-BR-3 [8]): 27.1 ± 1.2 µM
COc1c2occc2c(NCc2ccc(Br)cc2)c2ccc(=O)oc12 [4b, 4-((4-Bromobenzyl)amino)-9-methoxy-7H-furo[3,2-g]chromen-7-one] | – | 150 to 151 °C | – | – | – | – | IC50 (aromatase (CYP19)): 0.9 ± 0.2 µM; IC50 ([1]; read-out: DPPH IC50): 166 µM; HL-60 Antiox. %Inh [2]: Toxic; IC50 (MDA-MB-231 [3]): 94.4 ± 4.77 µM; fold superiority of SI over tamoxifen citrate (T47-D): ≥ 3.7 fold; IC50 (T47-D): 10.4 ± 0.79 µM; Selectivity Index (SI) (T47-D): > 12.0
O=C1O[C@H]([C@@H](O)CO)C(O)=C1O [Ascorbic acid, reference compound] | – | – | – | – | – | – | IC50 ([1]; half-maximal scavenging concentration, reference compound, read-out: DPPH IC50 (standard)): 43.1 µM
O=C(O)c1cc(O)c(O)c(O)c1 [Gallic acid, reference compound] | – | – | – | – | – | – | IC50 ([4]; positive control, read-out: XXO IC50 (standard)): 2.8 ± 0.1 µM
COc1c2occc2c(N2C(=O)CSC2c2ccc(Br)cc2)c2ccc(=O)oc12 (centres unmarked) [III] | – | – | – | – | – | – | anti-cancer activity (MCF-7) (MCF-7): Inactive
COc1c2occc2c(N=Cc2cccs2)c2ccc(=O)oc12 [II] | – | – | – | – | – | – | anti-cancer activity (MCF-7) (MCF-7): Inactive
CCNC(=S)Nc1c2ccoc2c(OC)c2oc(=O)ccc12 [IVa] | – | – | – | – | – | – | anti-cancer activity (MCF-7) (MCF-7): Inactive
COc1c2occc2c(NC(=S)NCc2ccccc2)c2ccc(=O)oc12 [IVb] | – | – | – | – | – | – | anti-cancer activity (MCF-7) (MCF-7): Inactive
COc1c2occc2c([N+](=O)[O-])c2ccc(=O)oc12 [compound 1, 9-Methoxy-4-nitro-7H-furo[3,2-g]chromen-7-one] | 34% | 237 to 238 °C | 5% | 1% | 39% | – | IC50 (T47-D): > 100 µM
COc1c2occc2c(N)c2ccc(=O)oc12 [compound 2, 4-Amino-9-methoxy-7H-furo[3,2-g]chromen-7-one] | 9% | 238 to 239 °C | 23% | 0% | 3% | 28% | –
